Results from the supplement of paper PMC8149375.

Tests used:
Conditions in all cases: treatment: drug alone; 5 days
769-P [1] = assay: GI50, drug alone; higher = less potent
Method: (§1)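 Primary HTS: 8 RCC cell lines treated with 8 doses (up to 10 uM) of each library drug alone for 5 days; viability read by CellTiter-Glo and normalised to DMSO. GI50 was fitted with XLfit (4-parameter), AUC is the area under the dose-response curve, and minimum viability is the lowest fraction of DMSO viability across doses.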

786-O [2] = assay: GI50, drug alone; higher = less potent
Method: as §1

A498 [3] = assay: GI50, drug alone; higher = less potent
Method: as §1

ACHN [4] = assay: GI50, drug alone; higher = less potent
Method: as §1

CAKI-1 [5] = assay: GI50, drug alone; higher = less potent
Method: as §1

SN12C [6] = assay: GI50, drug alone; higher = less potent
Method: as §1

TK-10 [7] = assay: GI50, drug alone; higher = less potent
Method: as §1

UO-31 [8] = assay: GI50, drug alone; higher = less potent
Method: as §1

769-P [9] = assay: minimum viability across doses, drug alone, relative to DMSO (fraction); higher = less growth inhibition
Method: as §1

786-O [10] = assay: as above
Method: as §1

A498 [11] = assay: as above
Method: as §1

ACHN [12] = assay: as above
Method: as §1

CAKI-1 [13] = assay: as above
Method: as §1

SN12C [14] = assay: as above
Method: as §1

TK-10 [15] = assay: as above
Method: as §1

UO-31 [16] = assay: as above
Method: as §1

769-P [17] = assay: AUC of dose-response viability curve, drug alone (arbitrary (AUC of normalised viability)); higher = less growth inhibition
Method: as §1

786-O [18] = assay: as above
Method: as §1

A498 [19] = assay: as above
Method: as §1

ACHN [20] = assay: as above
Method: as §1

CAKI-1 [21] = assay: as above
Method: as §1

SN12C [22] = assay: as above
Method: as §1

TK-10 [23] = assay: as above
Method: as §1

UO-31 [24] = assay: as above
Method: as §1

| Structure (SMILES) | GI50, drug alone (769-P [1]) [µM] | GI50, drug alone (786-O [2]) [µM] | GI50, drug alone (A498 [3]) [µM] | GI50, drug alone (ACHN [4]) [µM] | GI50, drug alone (CAKI-1 [5]) [µM] | GI50, drug alone (SN12C [6]) [µM] | GI50, drug alone (TK-10 [7]) [µM] | GI50, drug alone (UO-31 [8]) [µM] | minimum viability across doses (769-P [9]) | minimum viability across doses (786-O [10]) | minimum viability across doses (A498 [11]) | minimum viability across doses (ACHN [12]) | minimum viability across doses (CAKI-1 [13]) | minimum viability across doses (SN12C [14]) | minimum viability across doses (TK-10 [15]) | minimum viability across doses (UO-31 [16]) | AUC of dose-response viability curve (769-P [17]) | AUC of dose-response viability curve (786-O [18]) | AUC of dose-response viability curve (A498 [19]) | AUC of dose-response viability curve (ACHN [20]) | AUC of dose-response viability curve (CAKI-1 [21]) | AUC of dose-response viability curve (SN12C [22]) | AUC of dose-response viability curve (TK-10 [23]) | AUC of dose-response viability curve (UO-31 [24]) |
| --- | --- | --- | --- | --- | --- | --- | --- | --- | --- | --- | --- | --- | --- | --- | --- | --- | --- | --- | --- | --- | --- | --- | --- | --- |
| O=C(NCc1ccccc1)c1csc(Nc2ccncn2)n1 [Thiazovivin] | > 10 | > 10 | > 10 | 7.22 | > 10 | > 10 | > 10 | 4.49 | 0.717 | 0.526 | 0.891 | 0.369 | 0.609 | 0.804 | 0.69 | 0.279 | 3.01 | 2.69 | 3.9 | 3.15 | 3.17 | 3.58 | 3.36 | 3.55 |
| O=c1sn(-c2cccc3ccccc23)c(=O)n1Cc1ccccc1 [Tideglusib] | > 10 | 0.0203 | > 10 | > 10 | > 10 | > 10 | > 10 | > 10 | 0.948 | 0.485 | 0.979 | 0.822 | 0.941 | 0.871 | 0.736 | 1.14 | 3.48 | 2.12 | 3.82 | 3.19 | 3.54 | 3.28 | 2.95 | 4.53 |
| COc1ccc2cc(-c3[nH]c(-c4ccc(S(C)=O)cc4)nc3-c3ccncc3)ccc2c1 (stereo unspecified) [Tie2 kinase inhibitor] | > 10 | > 10 | > 10 | > 10 | > 10 | > 10 | > 10 | > 10 | 0.951 | 0.52 | 1.08 | 0.762 | 0.864 | 0.755 | 0.799 | 1.2 | 3.4 | 3.15 | 4.67 | 3.08 | 3.54 | 3.4 | 3.35 | 5.91 |
| COc1cc2nccc(Oc3ccc(NC(=O)Nc4cc(C)on4)c(Cl)c3)c2cc1OC [Tivozanib (AV-951)] | > 10 | > 10 | > 10 | 6.95 | 2.02 | 9.39 | > 10 | 0.301 | 0.849 | 0.904 | 1.12 | 0.352 | 0.0726 | 0.417 | 0.641 | 0.00837 | 3.47 | 3.89 | 4.88 | 3.21 | 2.12 | 3.26 | 3.14 | 2.98 |
